{
  "source": "patent US20220054496A1",
  "about": "“MODULATION OF TRF1 FOR BRAIN CANCER TREATMENT” (Fundación Del Sector Público Estatal Centro Nacional De …, priority 2018, published 2022)",
  "key": {"[1]": {"system": "U251 cells", "assay": "Neurosphere formation assay in U251 cells", "assay_type": "cell-based, human", "conditions": "U251 in NSC media; seven days; vs DMSO", "procedure": "(§1) Spheres were dissociated into single cells and seeded at a density of 50, 100, 200 and 400 cells/well in a 96 well plate. Neurosphere number was assessed after 7 days. Pictures were taken using Nikon Eclipse Ti-U microscope and neurosphere diameter was measured using NIS Elements BR software.\nFinally, the present inventors checked if the three chemical compounds had the ability to reduce sternness in these cells. They cultured U251 cells with NSC media in order to obtain a suspension culture enriched in stem cells. The inventors performed a sphere formation assay with these cells treated with ETP-47228, ETP-47037 and ETP-50946 or DMSO for seven days. […] Of note, all these effects recapitulated what the present inventors observed with Trf1 genetic downregulation (See 2.2)."}, "[2]": {"assay": "Crossing of the brain blood barrier"}, "[3]": {"system": "h676 GSCs", "assay": "Sphere formation assay in patient-derived h676 GSCs", "assay_type": "cell-based, human", "conditions": "vs untreated controls", "procedure": "(§2) FIG. 48. […] (A) Dose-response curves of the h676 GSCs treated 7 days with the indicated compounds. (B) Dose-response curves of the h543 GSCs treated 7 days with the indicated compounds. Data are represented as mean±SD.\nas §1\n(§3) Given the promising results the present inventors obtained with the TRF1 chemical modulators in the U251 GBM cell line, the present inventors next set to address the effects of these compounds in two independent patient-derived primary GSCs (h543 and h676) cultures.\n(§4) Next, the present inventors set to address whether the different compounds were able to block sphere formation in the h676 and h543 GSCs."}, "[4]": {"system": "h676 GSCs xenografts", "assay": "Subcutaneous xenograft of patient-derived h676 GSCs in nude mice", "assay_type": "in vivo", "procedure": "(§5) h676 and h543 patient-derived GSCs were dissociated using a 200 μl pipet and resuspended in NeuroCult medium and matrigel in a 1:1 ratio in a concentration of 1000 cell/μl. Nude mice (athymic Nude-Foxn1^nu/nu from Harlan) were injected subcutaneously with 100 μl of the cell preparation. ETP-47037 (or vehicle) was orally administrated at a concentration of 75 mg/kg 5 days per week (see also section 8), starting one week after cell injection. The vehicle consisted in 10% N-methyl-2-pyrrolidone (NMP, Sigma Aldrich) and 90% poly ethylene glycol (PEG, Sigma Aldrich). Mice were weighted and tumors were measured every 2-4 days. Tumor area was determined by the following equation: A=π*(a/2)*(b/2), were a and b are tumor length and width respectively.\n(§6) For oral administration, ETP-47037 was dissolved in 10% N-methyl-2-pyrrolidone (NMP, Sigma Aldrich) and 90% polyethylene glycol (PEG, Sigma Aldrich) at a concentration of 75 mg/kg.\nNext, the present inventors set to address whether TRF1 chemical inhibition was able to block tumor growth in vivo. […] Thus, the two independent primary GSCs (h676 and h543) were injected subcutaneously into nude mice. One week after GSC injection, mice received oral administration of the vehicle (NMP 10%, PEG 90%) as placebo or the ETP-47037 TRF1 inhibitor 5 days/week, every week until human endpoint, and tumors were continuously followed-up by caliper measurements (FIG. 42A)."}, "[5]": {"system": "h543 GSCs", "assay": "Sphere formation assay in patient-derived h543 GSCs", "assay_type": "cell-based, human", "conditions": "vs untreated controls", "procedure": "as §2, §1, §3, §4"}, "[6]": {"system": "TRF1", "assay": "Western blot of total TRF1 protein in U251 cells", "assay_type": "cell-based, human", "conditions": "10 μM, 24 h or 48 hr", "procedure": "Nuclear protein extracts were obtained using Nuclear Cytosolic Fractionation Kit (Biovision) and protein concentration was determined using the Bio-Rad DC Protein Assay (Bio-Rad). Up to 15 μg of protein per extract were separated in SDS-polyacrylamide gels by electrophoresis. After protein transfer onto nitrocellulose membrane (Whatman), the membranes were incubated with the indicated antibodies. Antibody binding was detected after incubation with a secondary antibody coupled to horseradish peroxidase using chemiluminescence with ECL detection KIT (GE Healthcare)\nQuantifications: Protein-band intensities were measured with ImageJ software and normalized against the loading control.\n(§7) For in vitro studies, ETP-47228 ETP-47037 and ETP-50946 were dissolved in DMSO at a final concentration of 10 or 5 mM. Cells were treated at a concentration of 10 μM for 24 h or 48 hr.\n(§8) To address whether these small molecules could represent a new therapeutic strategy for the treatment of GBM, the present inventors first tested the ability of the three independent TRF1 inhibitory molecules (ETP-47228, ETP-47037 and ETP-50946) to downregulate TRF1 protein levels in the U251 human GBM cell line."}, "[7]": {"system": "TRF1", "assay": "TRF1 nuclear immunofluorescence (TRF1 foci) in U251 cells", "assay_type": "cell-based, human", "conditions": "10 μM, 24 h or 48 hr", "procedure": "For immunofluorescence analyses, cells were plated in a proper density in cell culture μCLEAR plates (Greiner) and fixed in 4% formaldehyde in PBS. Cells were permeabilized with 0.25% Triton in PBS and blocked with 5% BSA in PBS. Tissue sections were fixed in 10% buffered formalin (Sigma) and embedded in paraffin. After deparaffinization and citrate antigen retrieval, sections were permeabilized with 0.5% Triton in PBS and blocked with 1% BSA and 10% Australian FBS ([…]) in PBS. The antibodies were applied overnight in antibody diluents with background reducing agents (Invitrogen).\nImmunofluorescence images were obtained using a confocal ultraspectral microscope (Leica TCS-SP5) or the Opera High Content Screening (HCS) system (Perkin Elmer). Quantifications were performed with Definiens software.\nas §7, §8"}, "[8]": {"system": "h543 GSCs xenografts", "assay": "Subcutaneous xenograft of patient-derived h543 GSCs in nude mice", "assay_type": "in vivo", "conditions": "oral 75 mg/kg 5 days/week, vs vehicle", "procedure": "as §5, §6\n(§9) Next, the present inventors set to address whether TRF1 chemical inhibition was able to block tumor growth in vivo. […] Thus, the two independent primary GSCs (h676 and h543) were injected subcutaneously into nude mice. […]"}, "[9]": {"system": "K-Ras^G12V-induced lung tumors", "conditions": "p53-deficient background; cited from earlier work"}, "[10]": {"assay": "Sickness, morbidity and pathologies of xenograft mice after long-term treatment", "assay_type": "in vivo", "procedure": "as §5\nHistopathological analysis was performed in paraffin embedded tissue sections stained with hematoxylin and eosin (H&E), with the assistance of the CNIO Histopathology Unit and Juana María Flores from the Universidad Complutense de Madrid (UCM).\nas §9"}, "[11]": {"conditions": "GSC-derived xenografts, vs vehicle"}},
  "note": "“Also recorded” adds a separate entry of the source.",
  "data": [
    {"molecule": "CS(=O)(=O)N1CCN(Cc2cc3c(N4CCOCC4)nc(-c4cnc(N)nc4)cn3n2)CC1", "note": "[ETP-47037]", "values": [
      {"measurement": "diameter of neurospheres", "setting": "[1]", "value": "strong reduction"},
      {"measurement": "number of neurospheres", "setting": "[1]", "value": "strong reduction"},
      {"measurement": "crossing the brain blood barrier", "setting": "[2]", "value": "not crossing the brain blood barrier"},
      {"measurement": "diameter of spheres", "setting": "[3]", "value": "significant drastic reduction"},
      {"measurement": "number of spheres", "setting": "[3]", "value": "significant drastic reduction"},
      {"measurement": "proliferation marker Ki67-positive cells in tumors", "setting": "[4]; [11]", "value": "reduces proliferation"},
      {"measurement": "γH2AX DNA damage marker positive cells in tumors", "setting": "[4]; [11]", "value": "induces DNA damage"},
      {"measurement": "tumor areas (caliper follow-up)", "setting": "[4]; h676 xenograft, oral 75 mg/kg 5 days/week, vs vehicle", "value": "drastic reduction"},
      {"measurement": "decrease of TRF1 protein levels in tumors (immunofluorescence)", "setting": "[4]; h676 xenograft, vs placebo", "value": 80, "unit": "%"},
      {"measurement": "tumor size post-mortem", "setting": "[4]; h676 xenograft, vs placebo", "value": "striking decrease"},
      {"measurement": "tumor weight post-mortem", "setting": "[4]; h676 xenograft, vs placebo", "value": "striking decrease"},
      {"measurement": "histological analysis of the tumors", "setting": "[4]; xenografts after treatment", "value": "decreased cellularity in the tumors, together with necrotic areas, apoptotic bodies, compacted chromatin and fragmented DNA"},
      {"measurement": "diameter of spheres", "setting": "[5]", "value": "significant drastic reduction"},
      {"measurement": "number of spheres", "setting": "[5]", "value": "significant drastic reduction"},
      {"measurement": "total TRF1 protein levels (western blot)", "setting": "[6]", "value": "effectively reduced"},
      {"measurement": "TRF1 foci (immunofluorescence)", "setting": "[7]", "value": "effectively reduced"},
      {"measurement": "tumor areas (caliper follow-up)", "setting": "[8]", "value": "drastic reduction"},
      {"measurement": "growth of already established lung adenocarcinomas", "setting": "[9]", "value": "effectively impair the growth"},
      {"measurement": "Mice pathologies after long-term treatment", "setting": "[10]; one line per mouse (Mice 1-4)", "value": "Mice 3: dermatitis; also recorded: Mice 4: dermatitis; also recorded: Mice 2: dermatitis"},
      {"measurement": "signs of sickness or morbidity", "setting": "[10]; treated cohorts compared to the placebo group", "value": "did not detect any signs of sickness or morbidity"}
    ]}
  ]
}
